Consider 2 molecules from US20060160756A1, “Treatment and prevention of multi-drug resistance” (priority 2004, published 2006).

Where two headings read alike, the source gives them in different places.

Usually AUC stands for the area under the concentration-time curve, a measure of exposure. A higher AUC goes with high exposure. One may read the Cmax as the peak of the concentration-time curve. As a reminder, the Tmax is the time at which the peak concentration occurs. In general, t½ refers to the time needed for the level to fall by half in the phase considered. A lower t½ goes with rapid decline.

Data set [1] relates to K562/adriamycin-resistant cells. The experiment in a line: MTT assay: dofediquar effect on ADM cytotoxicity / growth of MDR cells. It is filed as cell-based. As to conditions: for Growth rate (% of control): 2nd incubation (24 hr) without MS-209, MS-209 3 μM where present. For orientation: Tetrazolium assays rely on reduction of a dye to a coloured formazan, in cell work by metabolically active cells.

Data set [2] is described as follows: Pharmacokinetics of dofediquar after single oral administration to fasted healthy male volunteers. The following applies: for AUC / Cmax / Tmax / t½: mean ± S.D. It counts as in vivo, healthy male Japanese adults. As to the method: The pharmacokinetic parameters of dofediquar (MS-209) are investigated in fasted healthy male Japanese adults. The study design is described in Table 2. The plasma concentrations of dofediquar after single oral administration of increasing doses from 100 to 1200 mg to fasted healthy male Japanese adults is illustrated in FIGS. 2 and 3.

Data set [3] in a line: Concentrations of dofediquar in plasma and tumor tissue after single oral administration in colon 26-bearing mice. It counts as in vivo. The following applies: for Concentration of MS-209, Plasma / Concentration of MS-209, Tumor: mean ± SD of N = 3.
Data set [4] deals with drug-resistant cancer cell lines. The experiment in a line: In vitro studies using drug-resistant cancer cell lines (effective concentration). It is filed as cell-based. The procedure: The effective concentration of dofediquar of about 3 μM (ca. 2 μg/mL) indicated in in vitro studies using drug-resistant cancer cell lines, is achieved at doses of 300 mg or higher.
Setting [5] is: 100 mg single oral dose, fasted.
The mark [6] stands for this setting: 300 mg single oral dose, fasted.
Setting [7] is: 600 mg single oral dose, fasted.
[8] abbreviates: 900 mg single oral dose, fasted.
Setting [9] is: 1200 mg single oral dose, fasted.
[10] abbreviates: single oral doses 100 to 1200 mg.
[11] abbreviates: 0.5 h after single oral 200 mg/kg.
[12] abbreviates: 1 h after single oral 200 mg/kg.
The mark [13] stands for this setting: 2 h after single oral 200 mg/kg.
Where [14] appears, read: 5 h after single oral 200 mg/kg.
Setting [15] is: 24 h after single oral 200 mg/kg.

`COc1cccc2c1C(=O)c1c(O)c3c(c(O)c1C2=O)C[C@@](O)(C(=O)CO)C[C@@H]3O[C@H]1C[C@H](N)[C@H](O)[C@H](C)O1` [ADM, adriamycin]: the “Growth rate (% of control)” value was 93.4 % of control in data set [1] (ADM 100 ng/ml, 1st incubation 1 hr); 102 % of control in data set [1] (ADM 100 ng/ml, 1st incubation 3 hr); 92.0 % of control in data set [1] (ADM 100 ng/ml, 1st incubation 6 hr); 88.1 % of control in data set [1] (ADM 300 ng/ml, 1st incubation 1 hr); 100 % of control in data set [1] (ADM 300 ng/ml, 1st incubation 6 hr).
Consider `O=C(C(c1ccccc1)c1ccccc1)N1CCN(CC(O)COc2cccc3ncccc23)CC1` (stereo not drawn) [dofediquar], for which the “Cell growth inhibition with vs without dofediquar during the 2nd incubation” value in data set [1] (co-treated with adriamycin (100-300 ng/ml) and dofediquar (3 μM), then 2nd incubation (24 hr) with dofediquar alone) was “slightly more inhibited”. In data set [1] (pretreated with 3 μM dofediquar for 24 hours, washed away, then ADM alone for 72 hours (FIG. 1)), the “Enhancement of ADM cytotoxicity” value is recorded as “does not show an enhancement of ADM cytotoxicity”. The exposure (AUC) in data set [2] (setting [5]) was determined as 720 ± 210 ng·h/mL; in data set [2] (setting [6]), 7290 ± 2540 ng·h/mL; in data set [2] (setting [7]) it was 32470 ± 5940 ng·h/mL; in data set [2] (setting [8]), 62900 ± 9670 ng·h/mL; in data set [2] (setting [9]) it was 105390 ± 20100 ng·h/mL. Besides, the highest concentration (Cmax) was determined as 470 ± 200 ng/mL in data set [2] (setting [5]); 2700 ± 740 ng/mL in data set [2] (setting [6]); 10110 ± 2140 ng/mL in data set [2] (setting [7]); 14030 ± 2480 ng/mL in data set [2] (setting [8]); 20990 ± 2150 ng/mL in data set [2] (setting [9]). The Tmax in data set [2] (setting [5]) was determined as 1.04 ± 0.40 h; in data set [2] (setting [6]), 1.04 ± 0.40 h; in data set [2] (setting [7]), 0.75 ± 0.22 h; in data set [2] (setting [8]), 1.67 ± 0.68 h; in data set [2] (setting [9]), 1.00 ± 0.27 h. Besides, the t½ amounted to 0.89 ± 0.37 h in data set [2] (setting [5]); 1.17 ± 0.25 h in data set [2] (setting [6]); 2.25 ± 0.47 h in data set [2] (setting [7]); 2.39 ± 0.37 h in data set [2] (setting [8]); 3.10 ± 0.31 h in data set [2] (setting [9]). The Detection in plasma result is recorded as “not detected” in data set [2] (dose of 10 mg, single oral) and “detected in one of 6 subjects” in data set [2] (dose of 30 mg, single oral). For the same molecule, the “Manner of decline of plasma concentration after the peak” value in data set [2] (doses of 100 mg or higher, single oral) is “declines in a monophasic manner”. In addition, in data set [2] (single oral dose, fasted), the “Dose at which the effective concentration of about 3 μM (ca. 2 μg/mL) is achieved in plasma” value is given as ≥ 300 mg. Also, the “Dose dependence of Cmax and AUC” value in data set [2] (setting [10]) is recorded as “increase more steeply than expected from the dose increase”. In addition, in data set [2] (setting [10]), the “Dose dependence of Tmax” value is given as “does not change”. Moreover, in data set [2] (setting [10]), the “Dose dependence of half-life” value was “increases with increasing dose”. The “Concentration of MS-209, Plasma” value in data set [3] (setting [11]) amounted to 25600 ± 9300 ng/mL; in data set [3] (setting [12]), 33000 ± 6300 ng/mL; in data set [3] (setting [13]), 27300 ± 7000 ng/mL; in data set [3] (setting [14]), 24600 ± 10000 ng/mL; in data set [3] (setting [15]) it was 610 ± 410 ng/mL. The “Concentration of MS-209, Tumor” value in data set [3] (setting [11]) was 15.9 ± 8.1 µg/g; in data set [3] (setting [12]), 30.6 ± 7.5 µg/g; in data set [3] (setting [13]), 28.0 ± 9.4 µg/g; in data set [3] (setting [14]) it was 25.8 ± 10 µg/g; in data set [3] (setting [15]), 0.52 ± 0.49 µg/g. Further, in data set [3] (single oral 200 mg/kg), the AUC, Plasma is 368000 ng·h/mL. In addition, the AUC, Tumor in data set [3] (single oral 200 mg/kg) came to 376 µg·h/g. Besides, the results for the Effective concentration result in data set [4] and in data set [4] (same value as 3 μM) were “about 3 μM” and “ca. 2 μg/mL”, respectively.
